One test relates to IL-12. To be noted: human monocytes, LPS 100 ng/ml for 4 hours, bindarit 300 μM tested as sodium salt. How it is done:
The capacity of bindarit to inhibit the expression of IL-12 by human monocytes stimulated with lipopolysaccharide (LPS) was evaluated.
Human monocytes were used, which were isolated from healthy donors by centrifugation on a Ficoll gradient and purified by two successive centrifugation steps, followed by a step of isolation by means of an immunomagnetic system of negative cell separation (MACS, Miltenyi Biotech), using specific antibodies.
The cells were stimulated with LPS (100 ng/ml) for 4 hours in the presence or absence of bindarit (300 μM). The product was tested in the form of the sodium salt obtained by salification with equimolar sodium hydroxide and subsequent dilution in the medium used. The total RNA was extracted from cells using TRizol (Invitrogen Life Technologies) according to manufacturer's instructions, reverse-transcribed and prepared by GeneChip hybridization.

In test [1] the test system is obese Zucker rats (fa/fa). To be noted: standard rodent diet supplemented with 0.5% bindarit, blood at 6, 16, 28 and 40 weeks old. The protocol: The activity of bindarit was tested in an experimental model in rats.
The study was performed on rats 5 weeks old on arrival, of the Zucker strain homozygous for the “fa” allele (fa/fa), insulin-resistant, hyperinsulinaemic and obese, and on rats of the same age of the heterozygous Zucker control strain (fa/+), phenotypically normal, insulin-sensitive and slim.
At six weeks old, the obese Zucker rats were divided into two groups, one of which was fed with a standard rodent diet, and the other with a standard rodent diet supplemented with 0.5% bindarit.
The slim Zucker rats of the same age were used as controls and fed with a standard rodent diet.
Blood samples were taken from the animals periodically (at 6, 16, 28 and 40 weeks old) for enzymatic measurement of the circulating levels of triglycerides, cholesterol and glucose.

Regarding `CC(C)(OCc1nn(Cc2ccccc2)c2ccccc12)C(=O)O` [bindarit], the “reduction of the levels of LPS-induced IL-12 specific mRNA” value in the test on IL-12 is “about 100 fold”. For the same compound, in test [1], the “circulating levels of cholesterol” value is “significant reduction”, the “circulating levels of triglycerides” value was “significant reduction” and the “glycaemia (circulating glucose)” value was “significant reduction”.

Source of the values: patent US8846745B2, “Use of an indazolemethoxyalkanoic acid for reducing triglyceride, cholesterol and glucose levels” (Aziende Chimiche Riunite Angelini Francesco A.C.R.A.F. …, priority 2006, dated 2014).
